Test results published in US5770573A, “CS-1 peptidomimetics, compositions and methods of using the same” (Cytel Corporation, priority 1995, dated 1998).
Square brackets hold non-standard residues; d marks the D form. Peptide text beside a SMILES is read from it. * marks the point of attachment. ξ: configuration not given here. NHOctadecyl = CCCCCCCCCCCCCCCCCCN*; Cya = N[C@@H](CS(=O)(=O)O)C(=O)O; NMeF = CN[C@@H](Cc1ccccc1)C(=O)O; Cha = N[C@@H](CC1CCCCC1)C(=O)O; ξAtc = NC1(C(=O)O)CCc2ccccc2C1; Morpholide = C1CN(*)CCO1; Nle = CCCC[C@H](N)C(=O)O; Piperidide = C1CCN(*)CC1; Nva = CCC[C@H](N)C(=O)O; Cbz = O=C(OCc1ccccc1)*; PhAc = O=C(Cc1ccccc1)*; Bz = O=C(c1ccccc1)*; Ahx = NCCCCCC(=O)O; X6 = O=C(O)CO*

These molecules were tested against VLA-4 (Homo sapiens, UniProt P05556+P13612) (assay: In vitro binding inhibition of 51Cr-labeled Jurkat cells to solid phase-bound CS-1 compound (SEQ ID NO:1)). Conditions: not given.
VLA-4, sequence (P13612 34-1032): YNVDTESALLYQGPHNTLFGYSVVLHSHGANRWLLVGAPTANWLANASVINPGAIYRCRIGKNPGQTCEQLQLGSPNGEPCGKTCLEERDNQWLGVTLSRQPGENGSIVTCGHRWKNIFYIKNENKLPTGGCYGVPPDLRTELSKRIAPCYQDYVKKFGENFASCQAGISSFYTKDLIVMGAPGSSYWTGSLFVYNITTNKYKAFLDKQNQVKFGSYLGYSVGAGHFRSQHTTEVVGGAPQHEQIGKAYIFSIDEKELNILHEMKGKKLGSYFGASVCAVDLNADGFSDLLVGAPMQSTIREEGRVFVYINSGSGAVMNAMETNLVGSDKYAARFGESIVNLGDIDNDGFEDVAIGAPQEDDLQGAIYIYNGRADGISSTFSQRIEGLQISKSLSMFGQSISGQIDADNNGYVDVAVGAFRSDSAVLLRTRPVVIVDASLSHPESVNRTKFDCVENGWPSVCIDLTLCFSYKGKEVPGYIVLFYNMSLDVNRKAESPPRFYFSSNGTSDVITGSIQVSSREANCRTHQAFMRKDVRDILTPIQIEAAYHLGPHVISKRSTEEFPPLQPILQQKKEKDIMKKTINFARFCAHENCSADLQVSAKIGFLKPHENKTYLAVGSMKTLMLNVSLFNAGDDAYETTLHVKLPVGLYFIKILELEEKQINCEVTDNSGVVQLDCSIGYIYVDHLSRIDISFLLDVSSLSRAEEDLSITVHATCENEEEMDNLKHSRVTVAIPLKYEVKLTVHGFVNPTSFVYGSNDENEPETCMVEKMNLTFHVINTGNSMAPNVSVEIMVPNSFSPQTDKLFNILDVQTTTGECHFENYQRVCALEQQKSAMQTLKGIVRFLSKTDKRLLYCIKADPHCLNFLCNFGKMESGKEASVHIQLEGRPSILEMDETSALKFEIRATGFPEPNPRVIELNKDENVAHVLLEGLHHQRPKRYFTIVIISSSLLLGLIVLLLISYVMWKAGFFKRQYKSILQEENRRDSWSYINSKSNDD
VLA-4, sequence (P05556 21-798): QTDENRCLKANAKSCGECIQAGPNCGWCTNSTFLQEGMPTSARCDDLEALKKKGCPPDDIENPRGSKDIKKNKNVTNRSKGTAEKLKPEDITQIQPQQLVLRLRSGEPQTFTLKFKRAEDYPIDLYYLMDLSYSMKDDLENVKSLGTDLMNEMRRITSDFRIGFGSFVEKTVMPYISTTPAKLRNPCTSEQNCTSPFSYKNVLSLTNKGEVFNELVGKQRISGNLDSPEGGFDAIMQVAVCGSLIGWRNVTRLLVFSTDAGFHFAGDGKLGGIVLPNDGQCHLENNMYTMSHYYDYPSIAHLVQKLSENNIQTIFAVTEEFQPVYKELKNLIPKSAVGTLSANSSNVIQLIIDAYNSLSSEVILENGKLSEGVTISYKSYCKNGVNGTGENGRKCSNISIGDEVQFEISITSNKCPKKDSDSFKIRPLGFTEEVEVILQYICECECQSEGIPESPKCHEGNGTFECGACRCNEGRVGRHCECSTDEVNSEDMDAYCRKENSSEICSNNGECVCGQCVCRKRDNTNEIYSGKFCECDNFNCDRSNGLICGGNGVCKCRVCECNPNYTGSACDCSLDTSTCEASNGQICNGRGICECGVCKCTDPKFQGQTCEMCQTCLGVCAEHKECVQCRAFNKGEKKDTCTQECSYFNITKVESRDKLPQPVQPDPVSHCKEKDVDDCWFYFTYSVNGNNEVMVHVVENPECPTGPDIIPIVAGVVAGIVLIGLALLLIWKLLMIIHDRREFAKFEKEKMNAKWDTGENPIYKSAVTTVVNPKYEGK
Format: cell-based
Design: inflammatory cells that contain the VLA-4 receptor [Jurkat cells; host or cells: Jurkat (human T lymphoblastic line)
Method: Binding inhibition is measured here as a concentration of compound that inhibits one-half the binding between a standard number of Jurkat cells and a standard amount of CS-1 compound bound to the surface of a microtiter plate well. Those concentrations are conveniently expressed as IC50 values, smaller numbers indicating a lower concentration required to inhibit 50 percent binding and therefore greater potency. Further specifics of this assay are provided hereinafter.
Jurkat cells (ATCC TIB 152), a human T lymphoblastic line, labeled with ^51 chromium were used to assay in vitro binding inhibition provided by various compounds discussed herein.
The plates were prepared as follows: The 25-mer CS-1 compound (SEQ ID NO:1) dissolved at 0.5-1 μg/ml in a buffer of 0.1M NaHCO3 at pH 9.5 that also contained 10 μg/ml of bovine serum albumin (BSA) or a conjugate of the CS-1 compound linked to […] (CS-1-OVA) dissolved at 1-2.5 μg/ml in the same buffer was used as the substrate. Each well of the microtiter plates was coated with 50 μl of substrate or buffer alone for controls. The wells were permitted to dry out completely and were then rinsed twice with PBS at pH 7.4. Non-specific binding sites of each well were then blocked using 200 μl per well of RPMI/1 percent BSA for two hours at room temperature.
Jurkat cells (3-5×10^6 cells) were placed into a 15 ml Falcon™ round-bottom tube with a cap. The tube was centrifuged, and the extra medium was then removed.
Two hundred microliters of a ^51 Cr labeling solution were added to the centrifuged cells and maintained in contact with the cells for 90-120 minutes in a warm room. […] Longer contact times provide a greater amount of labeling but lower cell viability.
The labeled cells are washed with (i) complete medium, (ii) 1 mM EDTA/PBS and then (iii) RPM1/1 percent BSA free of serum components. The cells are centrifuged after each washing. The cells are finally resuspended in serum-free RPMI/1 percent BSA at a concentration of 1×10^6 viable cells/ml, which provides a concentration that is diluted by one-half in the assay.
Inhibitor compounds are prepared as stock solutions at 20 mg/ml in DMSO in 1.5 ml cryogenic screwcap vials, and were stored at -70° C. Using Flow™ round-bottom or V-bottom microtiter plates, the inhibitor compounds were prepared at twice the assay concentration in RPMI/1 percent BSA at 60 μl/well.
Four initial dilutions were typically used.
The ^51 Cr-labeled cells ([…] at 60 μl/well) were then admixed with the diluted compound solutions. The admixtures were maintained at room temperature (about 22° C.) for 30 minutes.
One hundred microliters of each inhibitor compound/cell admixture were transferred to the substrate-coated wells. This was done in triplicate for each dilution. The resulting plates were incubated for 30 minutes at 37° C. and then washed gently three times with RPMI/1 percent BSA at 200 μl/well. Binding was observed microscopically, particularly after the second wash.
The bound cells were then lysed by the addition of a 0.5 percent solution of sodium dodecylsulfate in water at 100 μl/well. The resulting solutions were then processed for counting and calculation of IC50 values following usual procedures.
The data of Table 1 are normalized to the binding of SEQ ID NO: 3. […] Multiple assays for the same compound were averaged.

| Compound | Relative Potency |
| --- | --- |
| COc1ccc(CCCC(=O)N[C@@H](CC(=O)O)C(=O)N[C@@H](Cc2ccccc2)C(=O)N2CCC[C@@H]2C(N)=O)cc1OC [1056.02] | 0 |
| CC(C)C[C@@H](C(=O)N[C@@H](CC(=O)O)C(=O)N[C@@H](Cc1ccccc1)C(=O)N1CCCCC1)N1C(=O)N[C@H](c2ccccc2)C1=O [1047.01] | 34.4 |
| Cc1ccc(C(=O)N[C@@H](CC(C)C)C(=O)N[C@@H](CC(=O)O)C(=O)N[C@H](C(=O)N2CCC[C@@H]2C(N)=O)C(C)C)cc1C [896.37] | 5.01 |
| CC(C)C[C@H](NC(=O)c1ccc2ccccc2c1)C(=O)N[C@@H](CC(=O)O)C(=O)N[C@H](C(=O)N1CCC[C@@H]1C(N)=O)C(C)C [896.44] | 2.5 |
| CC[C@H](C)[C@H](N)C(=O)N[C@@H](CC1CCCCC1)C(=O)N[C@@H](CC(=O)O)C(=O)N[C@H](C(=O)N1CCC[C@@H]1C(N)=O)C(C)C [896.32] (H-I[Cha]DV[dP]-NH2) | 1.41 |
| NC(=O)[C@H]1CCCN1C(=O)[C@H](Cc1ccccc1)NC(=O)[C@H](CC(=O)O)NC(=O)[C@H](CC1CCCCC1)NC(=O)[C@@H](N)Cc1ccccc1 [896.30] (H-F[Cha]DF[dP]-NH2) | 2.69 |
| CCC[C@H](NC(=O)[C@@H](N)[C@@H](C)CC)C(=O)N[C@@H](CC(=O)O)C(=O)N[C@H](C(=O)N1CCC[C@H]1C(N)=O)C(C)C [926.10] (H-I[Nva]DVP-NH2) | .13 |
| CC(C)=CCCC(C)CC(=O)N[C@@H](CC(=O)O)C(=O)N[C@@H](Cc1ccccc1)C(=O)N1CCC[C@@H]1C(N)=O (stereo partly drawn) [1056.10] | 0 |
| CC(C)C[C@H](NC(=O)[C@H]1CCCN1)C(=O)N[C@@H](CC(=O)O)C(=O)N[C@@H](Cc1ccccc1)C(=O)N1CCC[C@@H]1C(N)=O [951.11] (H-[dP]LDF[dP]-NH2) | 2.5 |
| CC(C)C[C@H](N)C(=O)N[C@@H](CC(=O)O)C(=O)N[C@H](C(N)=O)C(C)C [926.29] (H-Leu-Asp-Val-NH2) | 0.01 |
| CC(C)C[C@H](NC(=O)OCc1ccccc1)C(=O)N[C@@H](CC(=O)O)C(=O)N[C@@H](Cc1ccccc1)C(=O)N1CCC[C@@H]1C(N)=O [1056.01] (Cbz-LDF[dP]-NH2) | 34.4 |
| CC(C)C[C@@H](C(=O)N1C(=O)N([C@@H](Cc2ccccc2)C(=O)N2CCCCC2)C(=O)[C@@H]1CC(=O)O)N1C(=O)c2ccccc2C1=O [1047.03] | 0 |
| NC(=O)[C@H]1CCCN1C(=O)[C@H](Cc1ccccc1)NC(=O)[C@H](CC(=O)O)NC(=O)CCCCc1ccccc1 [1056.04] | .2 |
| CC(C)[C@H](NC(=O)[C@H](CC(=O)O)NC(=O)[C@H](CC1CCCCC1)NC(=O)[C@@H](N)Cc1ccccc1)C(=O)N1CCC[C@@H]1C(N)=O [896.33] (H-F[Cha]DV[dP]-NH2) | 2.61 |
| CC(C)C[C@@H](C(=O)N[C@@H](CC(=O)O)C(=O)N[C@@H](Cc1ccccc1)C(=O)N1CCCCC1)N1C(=O)N[C@@H](Cc2ccccc2)C1=O [1047.06] | 6.26 |

Same assay, conditions: binding inhibition potency relative to standard compound of SEQ ID NO:3 = 1 (normalized IC50); about one-tenth or less assigned zero

| Compound | Relative Potency |
| --- | --- |
| CC(C)C[C@H](NC(=O)Cc1ccccc1)C(=O)N[C@@H](CC(=O)O)C(=O)N[C@@H](Cc1ccccc1)C(=O)N1CCC(CC(=O)O)CC1 [1190.02] | 591 |
| NC(=O)[C@H]1CCCN1C(=O)[C@H](Cc1ccccc1)NC(=O)[C@H](CC(=O)O)NC(=O)[C@H](CS)NC(=O)Cc1ccccc1 [1042.22] (PhAc-CDF[dP]-NH2) | 46.9 |
| CC(C)C[C@H](NC(=O)Cc1ccccc1)C(=O)N[C@@H](CC(=O)O)C(=O)NC1(C(=O)N2CCC[C@@H]2C(N)=O)CCc2ccccc2C1 (stereo partly drawn) [896.65] (PhAc-LD[ξAtc][dP]-NH2) | 1.25 |
| CC(C)C[C@H](NC(=O)Cc1ccccc1)C(=O)N[C@@H](CC(=O)O)C(=O)N[C@H]1CCN(C2CCCCC2)C1=O [1057.02] | 6.57 |
| CCCC[C@H](NC(=O)Cc1ccccc1)C(=O)N[C@@H](CC(=O)O)C(=O)N[C@@H](Cc1ccccc1)C(=O)N1CCC[C@@H]1C(N)=O [1160.02] (PhAc-[Nle]DF[dP]-NH2) | 49 |
| CC(C)C[C@H](NC(=O)Cc1ccccc1)C(=O)N[C@@H](CC(=O)O)C(=O)N[C@@H](CC(C)C)C(=O)N1CCOCC1 [997.20] (PhAc-Leu-Asp-Leu-Morpholide) | 291 |
| CC(C)[C@H](NC(=O)[C@H](CC(=O)O)NC(=O)[C@H](CC1CCCCC1)NC(=O)c1ccccc1)C(=O)N1CCC[C@@H]1C(N)=O [896.34] (Bz-[Cha]DV[dP]-NH2) | 6.73 |
| O=C(O)CC(C(=O)N[C@@H](Cc1ccccc1)C(=O)N1CCCCC1)N1CC[C@H](NC(=O)Cc2ccccc2)C1=O (stereo partly drawn) [1057.01] | .88 |
| CC(C)C[C@H](NC(=O)Cc1ccccc1)C(=O)N[C@@H](CC(=O)O)C(=O)NCC(=O)N1CCOCC1 [997.16] (PhAc-Leu-Asp-Gly-Morpholide) | 9.23 |
| CC(C)C[C@H](NC(=O)Cc1ccccc1)C(=O)N[C@@H](CC(=O)O)C(=O)N(C)[C@@H](Cc1ccccc1)C(=O)N1CCC[C@@H]1C(N)=O [1190.05] (PhAc-LD[NMeF][dP]-NH2) | 0 |
| COc1ccccc1N1CC[C@H](NC(=O)[C@H](CC(=O)O)NC(=O)[C@H](CC(C)C)NC(=O)Cc2ccccc2)C1=O [1057.04] | 3.13 |
| CC(C)C[C@H](NC(=O)Cc1ccccc1)C(=O)N[C@@H](CC(=O)O)C(=O)NC1Cc2ccccc2N(CC(N)=O)C1=O (stereo partly drawn) [997.11] | 44.8 |
| CC(C)C[C@H](NC(=O)Cc1ccccc1)C(=O)N[C@@H](CC(=O)O)C(=O)N[C@@H](CO)C(=O)N1CCC[C@@H]1C(N)=O [1042.23] (PhAc-LDS[dP]-NH2) | 33.2 |
| CC(C)C[C@H](NC(=O)Cc1ccccc1)C(=O)N[C@@H](CS(=O)(=O)O)C(=O)N[C@@H](Cc1ccccc1)C(=O)N1CCCCC1 [1026.06] (PhAc-Leu-[Cya]-Phe-Piperidide) | 0 |
| CC(=O)N[C@@H](CC(C)C)C(=O)N[C@@H](CC(=O)O)C(=O)N[C@H](C(N)=O)C(C)C [926.30] (Ac-Leu-Asp-Val-NH2) | .63 |
| CC(C)C[C@H](NC(=O)Cc1ccccc1)C(=O)N[C@@H](CC(=O)O)C(=O)N[C@@H]1CCN(C2CCCCC2)C1=O [1057.03] | 3.44 |
| CC(C)C[C@H](NC(=O)Cc1ccccc1)C(=O)N[C@@H](CC(=O)O)C(=O)N[C@@H](Cc1ccccc1)C(=O)N1CCSCC1 [1111.02] | 450 |
| CC(C)C[C@H](NC(=O)Cc1ccccc1)C(=O)N[C@@H](CC(=O)O)C(=O)NC1Cc2ccccc2N(CCN2CCOCC2)C1=O (stereo partly drawn) [997.18] | 20 |

Same assay, conditions: relative to SEQ ID NO:3 = 1; potency before the prodrug compound is enzymatically converted to an active form

| Compound | Relative Potency (prodrug compound) |
| --- | --- |
| CC(C)C[C@H](NC(=O)Cc1ccccc1)C(=O)N[C@@H](CC(=O)OCC(=O)O)C(=O)N[C@@H](Cc1ccccc1)C(=O)N1CCC[C@@H]1C(N)=O [1067.02] (PhAc-LD(X6)F[dP]-NH2) | .81 |
| CCCCCCCCCCCCCCCCCCNC(=O)CCCCCNC(=O)[C@@H]1CCCN1C(=O)[C@H](Cc1ccccc1)NC(=O)[C@H](CC(=O)O)NC(=O)[C@H](CC(C)C)NC(=O)Cc1ccccc1 [1068.01] (PhAc-LDFP[Ahx]-NHOctadecyl) | .91 |
| CCCCCCCCCCCCCCCCCC(=O)OC1CCN(C(=O)[C@H](Cc2ccccc2)NC(=O)[C@H](CC(=O)O)NC(=O)[C@H](CC(C)C)NC(=O)Cc2ccccc2)CC1 [1068.05] | .63 |
